US5409946A, “Isoxazole, isothiazole and pyrazole compounds that enhance cognitive function” (Abbott Laboratories, priority 1993, dated 1995)
Entries after “also recorded” stand apart in the source; their conditions may differ. Counter-ions that a name gives are not always drawn. Like-named read-outs stand apart in the source and are kept apart here.

Columns and labels:
[1] = target: neuronal nicotinic receptors; test: Displacement of [3H]-MCC or [3H]-cytisine from neuronal nicotinic receptors, whole rat brain membranes; format: binding; details: Table 1, read-out: Nicotinic Receptor Ki
Method: Binding of [^3 H]-methylcarbamylcholine ([^3 H]-MCC) or [^3 H]-cytisine ([^3 H]-CYT) to nicotinic receptors was accomplished using crude synaptic membrane preparations from whole rat brain (Snyder and Enna, Brain Research, 1975, 100:81). Washed membranes were stored at -80° C. prior to use. Frozen aliquots were slowly thawed and resuspended in 20 volumes of buffer (containing: 120 mM NaCl, 5 mM KCl, 2 mM MgCl2, 2 mM CaCl2 and 50 mM Tris-Cl, pH 7.4 @4° C). After centrifuging at 20,000 X g for 15 minutes, the pellets were resuspended in 30 volumes of buffer. Homogenate (containing 125-150 μg protein) was added to triplicate tubes containing concentrations of test compound and [^3 H]-MCC (3 nM) in a final volume of 500 μL. Samples were incubated for 60 minutes at 4° C., then rapidly filtered through Whatman GF/B filters presoaked in 0.5% polyethylimine using 3×4 mL of ice-cold buffer. Alternately, homogenate and test compound were incubated for 75 min with [^3 H]-CYT (1.3 nM), then rapidly filtered, as described above. The filters are counted in 4 mL of Ecolume® (ICN). […] IC50 values were determined with the ALLFIT nonlinear least squares curve-fitting program and IC50 values were converted to Ki values using the Cheng and Prusoff correction (Ki =IC50 /(1+[ligand]/Kd of ligand)). Alternately, data were expressed as a percentage of the total specific binding.

[2] = system: cholinergic receptors located in the heart and in cortical tissues; details: cited from earlier work
[3] = in vivo; cited from earlier work
[4] = system: ethanol-induced narcosis; format: in vivo, male CD1 mice
Text: It is known that administration of ethanol to mice induces a state of narcosis in the animals. […] It is also known that certain compounds can modify the narcotic effect of ethanol in this model.
Animals: Male CD1 mice (Charles-River Co., Portage, Mich.) weighing 25-30 g were used in the experiments. Upon arrival they were caged in groups of 14 and allowed to acclimatize to laboratory conditions for one week before the beginning of the studies. They were fed standard rodent diet with food and water ad libitum.
Duration of sleep time: Mice received intraperitoneal (i.p.) injections of ethanol and either saline or one of the drug treatments. Upon loss of the righting reflex, a timer was started to record the duration of the sleep time until the reflex was recovered. Two types of experiments were conducted to study the effect of drugs before (pre-treatment) or after (post-treatment) the injection of the narcotic dose of ethanol. In the pre-treatment experiments the drugs were injected i.p., 15 minutes before ethanol. In the post-treatment experiments the drugs were administered i.p., 1 minute after the animals lost the righting reflex, which was approximately 5 minutes after administration of ethanol.
Drugs: Ethanol was prepared as a 20% v/v (16% w/v) solution in saline. Based on previous studies, a dose of 87 mmol/kg (4 g/kg) was selected as the narcotic dose. RO 15-4513, the benzodiazepine receptor inverse agonist discussed in the Background section, was purchased from RBI (Natick, Mass.). It was dissolved in saline solution with Tween-80 and ultrasonically homogenized for 3 minutes. […] The compounds of Examples 2 and 4, both novel neuronal nicotinic receptor ligands according to the present invention, were also dissolved in saline to the desired concentrations.

[5] = system: effects of ethanol; details: rats; cited from earlier work
[6] = post-treatment, i.p., p<0.05, one-tailed t test

| Compound | Ki [1] [nM] | other results |
| --- | --- | --- |
| CN1CCC[C@H]1c1cc(C(F)(F)F)no1 [Example 32, 3-trifluoromethyl-5-(1-methyl-2(S)-pyrrolidinyl)-isoxazole, hydrochloride] | 6.1 | – |
| Cc1cc([C@H]2C[C@H](O)CN2C)on1 (relative stereo) [Example 21, 3-Methyl-5-(trans-4-hydroxy-1-methyl-2-pyrrolidinyl)-isoxazole oxalate salt] | 114 | – |
| Cc1cc([C@@H]2CCCN2C)on1 [Example 11, 3-Methyl-5-(1-methyl-2(S)-pyrrolidinyl)-isoxazole hydrochloride salt] | – | Ki ([1]; hydrochloride salt): 3 nM |
| CCN1C[C@H](C)C[C@H]1c1cc(C)no1 [Example 28c, trans-5-(1-ethyl-4-methyl-2(S)-pyrrolidinyl)-3-methyl-isoxazole hydrochloride] | 21 | – |
| CCN1C(=O)CC2(CCN(C)CC2)C1=O [RS-86] | – | agonism at cardiac receptors ([2]; cardiac): full agonist; agonism at cortical receptors ([2]; cortical): partial agonist |
| Cc1cc([C@H]2C[C@H](C)CN2C)on1 (relative stereo) [Example 24, 3-Methyl-5-(trans-1,4-dimethyl-2-pyrrolidinyl)-isoxazole oxalate salt] | 24 | – |
| Cc1cc([C@@H]2CCCCN2)on1 [Example 40, 3-methyl-5-(2(S)-piperidinyl)-isoxazole hydrochloride] | 283 | – |
| Cc1cc([C@H]2CCCCN2C)on1 [Example 39, 3-methyl-5-(1-methyl-2(R)-piperidinyl)-isoxazole hydrochloride] | 357 | – |
| Cc1cc([C@@H]2CCCN2C)n(-c2ccccc2)n1 [Example 42, 3-methyl-5-(1-methyl-2(S)-pyrrolidinyl)-1-phenyl-pyrazole hydrochloride] | 145 | – |
| C[N+](C)(C)CCOC(N)=O [carbachol] | – | CNS penetration [3]: poor CNS penetration |
| CN1CCC[C@H]1c1cc(Cc2ccccc2)no1 [Example 8, 3-Benzyl-5-(1-methyl-2(S)-pyrrolidinyl)-isoxazole hydrochloride salt] | – | Ki ([1]; hydrochloride salt): 13 nM |
| CN1CCC[C@H]1c1cc(Br)no1 [Example 27, 3-Bromo-5-(1-methyl-2(S)-pyrrolidinyl)-isoxazole hydrochloride] | 7.7 | – |
| COCc1cc([C@@H]2CCCN2C)on1 [Example 20, 3-Methoxymethyl-5-(1-methyl-2(S)-pyrrolidinyl)-isoxazole fumarate salt] | 22 | – |
| Cc1cc([C@H]2CCCCN2)on1 [Example 38, 3-methyl-5-(2(R)-piperidinyl)-isoxazole hydrochloride] | 386 | – |
| CCN1CCC[C@H]1c1cc(C)no1 [Example 13, 5-(1-Ethyl-2(S)-pyrrolidinyl)-3-methyl-isoxazole hydrochloride salt] | 34 | – |
| Cc1cc([C@@H]2CCCN2)on1 [Example 1, 3-Methyl-5-(2(S)-pyrrolidinyl)-isoxazole oxalate salt] | 289 | – |
| CCc1cc([C@@H]2CCCN2C)on1 [Example 12, 3-Ethyl-5-(1-methyl-2(S)-pyrrolidinyl)-isoxazole hydrochloride salt] | – | Ki ([1]; hydrochloride salt): 7 nM |
| Cc1noc([C@@H]2CCCN2C)c1Cc1ccccc1 [Example 36, 3-methyl-5-(1-methyl-2(S)-pyrrolidinyl)-4-(phenylmethyl-isoxazole hydrochloride] | 77.6 | – |

| Compound | Ki [1] [nM] | other results |
| --- | --- | --- |
| Cc1cc([C@H]2CC[C@H](C)N2C)on1 (relative stereo) [Example 25, 3-Methyl-5-(trans-1,5-dimethyl-2-pyrrolidinyl)-isoxazole oxalate salt] | 289 | – |
| Cc1cc([C@@H]2CCN2C)on1 [Example 41, 3-methyl-5-(1-methyl-2(S)-azetidinyl)-isoxazole hydrochloride] | 2.5 | – |
| Cc1cc([C@H]2C[C@H](CF)CN2C)on1 (relative stereo) [Example 22, 3-Methyl-5-(trans-4-fluoromethyl-1-methyl-2-pyrrolidinyl)-isoxazole hydrochloride] | 183 | – |
| Cc1cc([C@H]2CCCN2C)on1 [Example 16, 3-Methyl-5-(1-methyl-2(R)-pyrrolidinyl)-isoxazole hydrochloride salt] | 55 | – |
| CCc1cc([C@H]2CCCN2)on1 [Example 17, 3-Ethyl-5-(2(R)-pyrrolidinyl)-isoxazole oxalate salt] | 12 | – |
| CN1CCC[C@H]1c1cc(Cc2ccccc2)no1 [Example 7, 3-Benzyl-5-(1-methyl-2(S)-pyrrolidinyl)-isoxazole oxalate salt] | – | Ki ([1]; oxalate salt): 18 nM |
| CCOC(=O)c1ncn2c1CN(C)C(=O)c1cc(N=[N+]=[N-])ccc1-2 [RO 15-4513] | – | Sleeping time ([4]; post-treatment, 1 μmol/kg i.p.): 84 ± 14 % of controls; Sleeping time ([4]; post-treatment, 3 μmol/kg i.p., statistically significant): 165 ± 22 % of controls; Sleeping time ([4]; post-treatment, 10 μmol/kg i.p.): 118 ± 13 % of controls; Sleeping time ([4]; post-treatment, 30 μmol/kg i.p.): 73 ± 11 % of controls; effect of post-treatment on ethanol-induced narcosis [4, 6]: significantly prolonged the narcotic effect of ethanol; also recorded: adversely potentiated the narcotic effect; Sleeping time ([4]; pre-treatment, 1 μmol/kg i.p.): 101 ± 9 % of controls; Sleeping time ([4]; pre-treatment, 3 μmol/kg i.p.): 107 ± 19 % of controls; Sleeping time ([4]; pre-treatment, 10 μmol/kg i.p.): 79 ± 6 % of controls; Sleeping time ([4]; pre-treatment, 30 μmol/kg i.p., statistically significant): 57 ± 14 % of controls; effect of pre-treatment on ethanol sleeping time ([4]; pre-treatment, i.p., p<0.05, one-tailed t test): significantly reduced the sleeping time of ethanol in mice; antagonism of the effects of ethanol [5]: selectively antagonize the effects of ethanol in rats |
| CCc1cc([C@@H]2CCCN2)on1 [Example 3, 3-Ethyl-5-(2(S)-pyrrolidinyl)-isoxazole oxalate salt] | 621 | – |
| Cc1cc([C@H]2CCCN2)on1 [Example 14] | 10 | – |
| Cc1cc([C@H]2CCCN2)on1 [Example 15, 3-Methyl-5-(2(R)-pyrrolidinyl)-isoxazole benzoate salt] | 7 | – |
| Cc1cc([C@@H]2CCCN2C)[nH]n1 [Example 43, 3-methyl-5-(1-methyl-2(S)-pyrrolidinyl)-pyrazole hydrochloride] | 228 | – |
| CCCc1cc([C@@H]2CCCN2C)on1 [Example 9, 5-(1-Methyl-2(S)-pyrrolidinyl)-3-propyl-isoxazole hyrochloride salt] | 14 | – |
| COc1cc([C@@H]2CCCN2C)on1 [Example 29, 5-(1-methyl-2(S)-pyrrolidinyl-3-methoxy-isoxazole hydrochloride] | 62 | – |
| Cc1cc([C@@H]2C[C@@H](C)CN2C)on1 [Example 28d, trans-5-(1-methyl-4-methyl-2(S)-pyrrolidinyl)-3-methyl-isoxazole hydrochloride] | 17.1 | – |
| CCCCc1cc([C@@H]2CCCN2C)on1 [Example 10, 3-n-Butyl-5-(1-methyl-2(S)-pyrrolidinyl)-isoxazole hydrochloride salt] | 24 | – |
| CCc1cc([C@@H]2CCCN2C)on1.O=C(O)C(=O)O [Example 4, 3-Ethyl-5-(1-methyl-2(S)-pyrrolidinyl)-isoxazole oxalate salt] | – | Ki ([1]; oxalate salt): 9 nM; Sleeping time ([4]; post-treatment, 0.062 μmol/kg i.p.): 73 ± 12 % of controls; Sleeping time ([4]; post-treatment, 0.19 μmol/kg i.p.): 61 ± 7 % of controls; Sleeping time ([4]; post-treatment, 0.62 μmol/kg i.p.): 59 ± 8 % of controls; effect of post-treatment on ethanol-induced narcosis [4, 6]: significantly reduced |
| Cc1cc([C@H]2CCCN2)sn1 [Example 19, 3-methyl-5-((2(R)-pyrrolidinyl)-isothiazole hydrochloride] | 228 | – |
| CCc1c(C)noc1[C@@H]1CCCN1C [Example 37, 3-methyl-5-(1-methyl-2(S)-pyrrolidinyl)-4-ethyl-isoxazole hydrochloride] | 105 | – |
